Measured values from US20040163143A1, “Method for efficiently producing transgenic plant using auxin precursor” (NIPPON PAPER INDUSTRIES CO., LTD., priority 2002, published 2004).

Assays:
[1] = system: E. globulus hypocotyl sections; experiment: E. globulus gene introduction test, vector pIAH6 (ipt + iaaH + GUS), adventitious bud redifferentiation and GUS staining; format: cell-based, Eucalyptus globulus; settings: for B Adventitious bud differentiated (number of sections): 3 months after infection; for B/A Redifferentiation ratio / C/A Gene introduction ratio / C/B Selection efficiency: section basis
Protocol: Using a plasmid pIAH6 as a vector having a GUS gene as a model of a desired gene and an ipt gene and an iaaH gene as selectable marker genes, a transformant was produced by carrying out gene introduction into Eucalyptus globulus (hereinafter referred to as “E. globulus”) by the method of the present invention. Seeds of E. globulus from Chile were sterilized by soaking in 70% ethanol for about 1 minute and then soaking with stirring in a 2% aqueous sodium hypochlorite solution for about 4 hours, washed thoroughly with sterile water, inoculated on an MS agar medium to which 0.5 mg/l zeatin had been added and stored in a refrigerator at 4° C. for 2 days to accelerate germination, and then the germination was carried out by culturing at 25° C. under light conditions of about 10 μmol/m^2/s in light intensity. One to two weeks after the inoculation of the seeds onto the germination medium, hypocotyls were collected by cutting out apical buds, cotyledons and roots of the germinated seedlings, and the hypocotyls were cut into sections of about 5 mm to be used as samples for gene introduction and subjected to the following test. A. tumefaciens EHA105 introduced with the plasmid pIAH6 in the above item I was cultured overnight in the YEB liquid medium and then diluted to OD630 =0.5 with EG basal medium, and the sections of hypocotyl prepared in the above were soaked in the cell suspension. Next, each of the sections after removing excess cell suspension was co-cultured with Agrobacterium on an agar medium (agar 8.5 g/l) prepared by adding 1.0 mg/l zeatin, 0.05 mg/l NAA and 40 mg/l acetosyringone to the EG basal medium, at 25° C. for 3 days in the dark to thereby infect each section with the pIAH6-introduced Agrobacterium. In this case, a modified MS medium having an ammonia nitrogen/nitrate nitrogen concentration ratio of 1:3 (5 mM NH4, 15 mM NO3) was supplemented with 20 g/l sucrose and used as the EG basal medium. The sections after infection culturing were put on an EG basal agar medium (agar 8.5 g/l) supplemented with 500 mg/l ticarcillin and 1 μM or 10 μM of an auxin precursor analogue NAM, and the culturing was continued at 25° C. under light conditions of 30 to 40 μmol/m^2/s in light intensity while sub-culturing at an interval of 2 weeks using the same medium. Among these sections, the quicker ones redifferentiated adventitious buds after about 2 months of the Agrobacterium infection. Three months after the Agrobacterium infection, in order to examine expression of the GUS gene used as a model of the desired gene, the redifferentiated adventitious buds were subjected to a GUS staining test in accordance with the method of Jefferson et al. (Plant Mol. Biol. Rep., 5: 387-405 (1987)), and the degree of formation of desired gene-introduced adventitious buds was judged by examining the number of stained adventitious buds (the number of adventitious buds expressing the desired gene). An E. globulus gene introduction test was carried out in the same manner as in Example 1, except that the hypocotyl sections after the Agrobacterium infection were cultured using the EG basal agar medium (agar 8.5 g/l) supplemented with 500 mg/l ticarcillin and 0 μM, 1 μM or 10 μM NAA as auxin.

[2] = system: E. globulus hypocotyl sections; experiment: E. globulus gene introduction test, vector pIPT10 (ipt only + GUS), adventitious bud redifferentiation and GUS staining; format: cell-based, Eucalyptus globulus; settings: for B/A Redifferentiation ratio / C/A Gene introduction ratio / C/B Selection efficiency: section basis
Protocol: Seeds of E. globulus from Chile were sterilized by soaking in 70% ethanol for about 1 minute and then soaking with stirring in a 2% aqueous sodium hypochlorite solution for about 4 hours, washed thoroughly with sterile water, inoculated on an MS agar medium to which 0.5 mg/l zeatin had been added and stored in a refrigerator at 4° C. for 2 days to accelerate germination, and then the germination was carried out by culturing at 25° C. under light conditions of about 10 μmol/m^2/s in light intensity. One to two weeks after the inoculation of the seeds onto the germination medium, hypocotyls were collected by cutting out apical buds, cotyledons and roots of the germinated seedlings, and the hypocotyls were cut into sections of about 5 mm to be used as samples for gene introduction and subjected to the following test. A. tumefaciens EHA105 introduced with the plasmid pIAH6 in the above item I was cultured overnight in the YEB liquid medium and then diluted to OD630 =0.5 with EG basal medium, and the sections of hypocotyl prepared in the above were soaked in the cell suspension. Next, each of the sections after removing excess cell suspension was co-cultured with Agrobacterium on an agar medium (agar 8.5 g/l) prepared by adding 1.0 mg/l zeatin, 0.05 mg/l NAA and 40 mg/l acetosyringone to the EG basal medium, at 25° C. for 3 days in the dark to thereby infect each section with the pIAH6-introduced Agrobacterium. In this case, a modified MS medium having an ammonia nitrogen/nitrate nitrogen concentration ratio of 1:3 (5 mM NH4, 15 mM NO3) was supplemented with 20 g/l sucrose and used as the EG basal medium. The sections after infection culturing were put on an EG basal agar medium (agar 8.5 g/l) supplemented with 500 mg/l ticarcillin and 1 μM or 10 μM of an auxin precursor analogue NAM, and the culturing was continued at 25° C. under light conditions of 30 to 40 μmol/m^2/s in light intensity while sub-culturing at an interval of 2 weeks using the same medium. Among these sections, the quicker ones redifferentiated adventitious buds after about 2 months of the Agrobacterium infection. Three months after the Agrobacterium infection, in order to examine expression of the GUS gene used as a model of the desired gene, the redifferentiated adventitious buds were subjected to a GUS staining test in accordance with the method of Jefferson et al. (Plant Mol. Biol. Rep., 5: 387-405 (1987)), and the degree of formation of desired gene-introduced adventitious buds was judged by examining the number of stained adventitious buds (the number of adventitious buds expressing the desired gene). An E. globulus gene introduction test was carried out in the same manner as in Example 1, except that the hypocotyl sections after the Agrobacterium infection were cultured using the EG basal agar medium (agar 8.5 g/l) supplemented with 500 mg/l ticarcillin and 0 μM, 1 μM or 10 μM NAA as auxin. An E. globulus gene introduction test was carried out in the same manner as in Example 1 or Comparative Example 1, except that a plasmid pIPT10 having only the ipt gene as the selectable marker gene was used as the vector. Also, the vector also has the GUS gene as a model of the desired gene. Structure of T-DNA region of the pIPT10 used in this case is shown in FIG. 2, and results of the gene introduction test are shown in Table 3.

[3] = NAM 1 μM in medium, 60 sections tested
[4] = NAM 10 μM in medium, 48 sections tested

SMILES: NC(=O)Cc1cccc2ccccc12 [NAM, naphthaleneacetic acid amide]
- C GUS + adventitious bud differentiated (number of sections) [1, 3]: 8 number of sections
- B Adventitious bud differentiated (number of sections) [1, 3]: 21 number of sections
- B/A Redifferentiation ratio ([1]; NAM 1 μM in medium): 35.0%
- C/A Gene introduction ratio ([1]; NAM 1 μM in medium): 13.3%
- C/B Selection efficiency ([1]; NAM 1 μM in medium): 38.1%
- C GUS + adventitious bud differentiated (number of sections) [1, 4]: 1 number of sections
- B Adventitious bud differentiated (number of sections) [1, 4]: 2 number of sections
- B/A Redifferentiation ratio ([1]; NAM 10 μM in medium): 4.2%
- C/A Gene introduction ratio ([1]; NAM 10 μM in medium): 2.1%
- C/B Selection efficiency ([1]; NAM 10 μM in medium): 50.0%
- B Adventitious bud differentiated (number of sections) ([2]; additive 1 μM in medium): 2 number of sections
- C GUS + adventitious bud differentiated (number of sections) ([2]; additive 1 μM in medium): 0 number of sections
- B/A Redifferentiation ratio ([2]; additive 1 μM in medium): 4.4%
- C/A Gene introduction ratio ([2]; additive 1 μM in medium): 0.0%
- C/B Selection efficiency ([2]; additive 1 μM in medium): 0%
- B Adventitious bud differentiated (number of sections) ([2]; additive 10 μM in medium): 0 number of sections
- C GUS + adventitious bud differentiated (number of sections) ([2]; additive 10 μM in medium): 0 number of sections
- B/A Redifferentiation ratio ([2]; additive 10 μM in medium): 0%
- C/A Gene introduction ratio ([2]; additive 10 μM in medium): 0.0%
- C/B Selection efficiency ([2]; additive 10 μM in medium): 0%
